These results are taken from patent US11571423B2, “Small molecule modulators of human sting” (Curadev Pharma Limited, priority 2017, dated 2023).

Read-outs that look alike come from different tables or passages of the source. Some results are limits rather than exact numbers.

One assay deals with hSTING(R232) (Homo sapiens, UniProt Q86WV6, H232R). Put plainly: Luciferase reporter assay in HEK293T-hSTING-Luciferase cells, R232 (wild type) human STING. Conditions: 20 hr stimulation, read-out: R232 human activity (EC50 range). It is filed as cell-based. Put shortly:
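After 20 hr compound stimulation of 5×10^5 cells, secreted luciferase in the supernatant was measured by luminescence; values are fold-induction over baseline and EC50. The line is a clonal HEK293T stably carrying a STING plasmid (pUNO-1) and a luciferase reporter under five tandem ISREs fused to an ISG54 promoter.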
A general note: A reporter such as luciferase makes a cellular process visible.

Assay [1] deals with cynomolgus monkey STING protein (Macaca fascicularis, UniProt A0A2R3XZA6). Put plainly: Luciferase reporter assay, cynomolgus monkey STING overexpressed in HEK293T cells. Format: cell-based. The settings on record: cynomolgus monkey STING overexpressed in HEK293T cells; read-out: Cynomolgus monkey STING activity (EC50 range). Put shortly: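 HEK293T cells overexpressing cynomolgus STING with a secreted luciferase reporter were stimulated with compound for 20 hr. Supernatant reporter activity was then measured by Quanti-Luc luminescence, and EC50 values were derived.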

A further assay has as its target hSTING(H232) (Homo sapiens, UniProt Q86WV6). Put plainly: Luciferase reporter assay in HEK293T-hSTING-Luciferase cells, H232/REF polymorph. Conditions: H232/REF polymorph of human STING, EC50 range class. Format: cell-based. Put shortly: (§1)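 HEK293T cells stably co-express the hSTING variant (hEF1-HTLV promoter) and an ISRE/ISG54 IRF-inducible luciferase reporter. Clones with minimal ligand-independent activation were used. Cells were stimulated with compounds for 20 hr, and secreted luciferase in the supernatant was read by luminescence to give EC50.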

The next assay addresses hSTING(HAQ) (Homo sapiens, UniProt Q86WV6, G230A/H232R/R293Q/R71H). Kind of assay: Luciferase reporter assay in HEK293T-hSTING-Luciferase cells, HAQ polymorph. It is filed as cell-based. The settings on record: HAQ polymorph of human STING, EC50 range class. Put shortly:
as §1

Another assay relates to IRF pathway. Kind of assay: Reporter gene expression assay in THP1-Dual cells, IRF axis (secreted Lucia luciferase). Format: cell-based, human. The settings on record: 20 hr stimulation, EC50 range class, read-out: THP-IRF activity. Put shortly: (§2)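 Human THP-1 monocyte-derived cells with two inducible reporters: 5×10^5 cells seeded and stimulated with compounds for 20 hr. SEAP (QUANTI-Blue) and Lucia luciferase (QUANTI-Luc) measured in supernatant; EC50 values reported as ranges.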

The next assay relates to NF-κB pathway. Kind of assay: Reporter gene expression assay in THP1-Dual cells, NFkB axis (secreted SEAP). Format: cell-based, human. Conditions: 20 hr stimulation, EC50 range class, read-out: THP-NFκB activity. Put shortly:
as §2

Chain of cynomolgus monkey STING protein (A0A2R3XZA6 entry or part of it): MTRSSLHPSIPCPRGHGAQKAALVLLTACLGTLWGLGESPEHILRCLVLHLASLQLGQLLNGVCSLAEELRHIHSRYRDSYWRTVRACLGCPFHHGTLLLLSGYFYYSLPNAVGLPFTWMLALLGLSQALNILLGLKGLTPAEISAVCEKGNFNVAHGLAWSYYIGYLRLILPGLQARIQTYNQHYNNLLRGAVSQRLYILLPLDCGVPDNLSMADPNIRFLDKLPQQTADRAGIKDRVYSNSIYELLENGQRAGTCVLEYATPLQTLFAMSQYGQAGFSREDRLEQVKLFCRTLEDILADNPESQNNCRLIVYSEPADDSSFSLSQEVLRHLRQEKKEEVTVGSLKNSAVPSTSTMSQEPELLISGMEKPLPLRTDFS
Chain of hSTING(HAQ) (Q86WV6 whole entry R71H/G230A/H232R/R293Q): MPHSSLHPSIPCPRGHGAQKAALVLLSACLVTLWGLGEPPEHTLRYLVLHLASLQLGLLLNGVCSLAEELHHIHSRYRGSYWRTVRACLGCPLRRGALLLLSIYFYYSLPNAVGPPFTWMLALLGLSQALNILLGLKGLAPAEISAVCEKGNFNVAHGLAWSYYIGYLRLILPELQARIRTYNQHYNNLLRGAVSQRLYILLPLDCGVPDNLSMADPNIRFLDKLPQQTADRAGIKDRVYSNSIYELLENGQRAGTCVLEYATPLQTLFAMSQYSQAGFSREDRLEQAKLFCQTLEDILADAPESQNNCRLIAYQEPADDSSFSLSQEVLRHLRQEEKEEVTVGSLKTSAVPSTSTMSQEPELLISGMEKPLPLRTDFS
Chain of hSTING(H232) (Q86WV6 whole entry): as the sequence (Q86WV6 whole entry R71H/G230A/H232R/R293Q) above, with H71R, A230G, R232H, Q293R counted along it
Chain of hSTING(R232) (Q86WV6 whole entry H232R, the tested form may be a part): as the sequence (Q86WV6 whole entry R71H/G230A/H232R/R293Q) above, with H71R, A230G, Q293R counted along it

In the case of `C[C@H]1c2ccc(C(=O)NCc3c(F)cc(F)cc3F)cc2N(Cc2c(F)cc(OC[C@@H](O)CO)cc2F)C(=O)N1C` [Example 147, (S)-1-(4-((S)-2,3-Dihydroxypropoxy)-2,6-difluorobenzyl)-3,4-dimethyl-2-oxo-N-(2,4,6-trifluorobenzyl)-1,2,3,4-tetrahydroquinazoline-7-carboxamide], the EC50 (at hSTING(R232); in assay [1]; on hSTING(H232); at hSTING(HAQ); with IRF pathway (Homo sapiens); in the assay with NF-κB pathway (Homo sapiens)) was less than 1000 nM in each case.

For `COc1cccc(F)c1CN1C(=O)N(C)C(C)c2ccc(C(=O)NCc3c(F)cc(F)cc3F)cc21` (stereo not drawn) [Example 154, 1-(2-fluoro-6-methoxybenzyl)-3,4-dimethyl-2-oxo-N-(2,4,6-trifluorobenzyl)-1,2,3,4-tetrahydroquinazoline-7-carboxamide], the EC50 (at hSTING(R232); in assay [1]; at hSTING(H232); at hSTING(HAQ); in the assay with IRF pathway; in the assay on NF-κB pathway) was less than 1000 nM throughout.

`Cc1cccc(F)c1CN1C(=O)N(C)C(C)c2ccc(C(=O)NCc3c(F)cc(F)cc3F)cc21` (stereo not drawn) [Example 162, 1-(2-fluoro-6-methylbenzyl)-3,4-dimethyl-2-oxo-N-(2,4,6-trifluorobenzyl)-1,2,3,4-tetrahydroquinazoline-7-carboxamide]: the EC50 (at hSTING(R232); in assay [1]; at hSTING(H232); at hSTING(HAQ); with IRF pathway (Homo sapiens); in the assay with NF-κB pathway (Homo sapiens)) was less than 1000 nM throughout.

Consider `Cc1ccc(Cl)c(CN2C(=O)N(C)[C@@H](C)c3ccc(C(=O)NCc4c(F)cc(F)cc4F)cc32)c1F` [Example 169, (S)-1-(6-chloro-2-fluoro-3-methylbenzyl)-3,4-dimethyl-2-oxo-N-(2,4,6-trifluorobenzyl)-1,2,3,4-tetrahydroquinazoline-7-carboxamide], for which the EC50 (at hSTING(R232); in assay [1]; at hSTING(H232); on hSTING(HAQ); in the assay with IRF pathway (Homo sapiens); with NF-κB pathway (Homo sapiens)) was less than 1000 nM throughout.

With `C[C@H]1c2ccc(C(=O)NCc3c(F)cc(F)cc3F)cc2N(Cc2c(Cl)ccc(F)c2F)C(=O)N1C` [Example 177, (S)-1-(6-chloro-2,3-difluorobenzyl)-3,4-dimethyl-2-oxo-N-(2,4,6-trifluorobenzyl)-1,2,3,4-tetrahydroquinazoline-7-carboxamide], the EC50 (at hSTING(R232); in assay [1]; on hSTING(H232); at hSTING(HAQ); with IRF pathway (Homo sapiens); with NF-κB pathway (Homo sapiens)) was less than 1000 nM each time.

Regarding `C[C@H]1c2ccc(C(=O)NCc3c(F)cc(F)cc3F)cc2N(Cc2c(F)ccc(F)c2Cl)C(=O)N1C` [Example 179, (S)-1-(2-chloro-3,6-difluorobenzyl)-3,4-dimethyl-2-oxo-N-(2,4,6-trifluorobenzyl)-1,2,3,4-tetrahydroquinazoline-7-carboxamide], the EC50 (at hSTING(R232); in assay [1]; at hSTING(H232); at hSTING(HAQ); in the assay on IRF pathway (Homo sapiens); in the assay with NF-κB pathway (Homo sapiens)) was less than 1000 nM in each case.

For the compound `Cc1nccc(CN2C(=O)N(C)C(C)c3ccc(C(=O)NCc4c(F)cc(F)cc4F)cc32)c1F` (stereo not drawn) [Example 180, 1-((3-fluoro-2-methylpyridin-4-yl)methyl)-3,4-dimethyl-2-oxo-N-(2,4,6-trifluorobenzyl)-1,2,3,4-tetrahydroquinazoline-7-carboxamide], the EC50 (at hSTING(R232); in assay [1]; at hSTING(H232); at hSTING(HAQ); in the assay with IRF pathway (Homo sapiens); with NF-κB pathway (Homo sapiens)) was less than 1000 nM in each case.

For the compound `C[C@H]1c2ccc(C(=O)NCc3c(F)cc(F)cc3F)cc2N(Cc2c(N)cccc2F)C(=O)N1C` [Example 182, (S)-1-(2-amino-6-fluorobenzyl)-3,4-dimethyl-2-oxo-N-(2,4,6-trifluorobenzyl)-1,2,3,4-tetrahydroquinazoline-7-carboxamide], the EC50 (at hSTING(R232); in assay [1]; on hSTING(H232); on hSTING(HAQ); in the assay on IRF pathway (Homo sapiens); in the assay with NF-κB pathway (Homo sapiens)) was less than 1000 nM in each case.

Consider `C[C@H]1c2ccc(C(=O)NCc3c(F)cc(F)cc3F)cc2N(Cc2c(F)ccc(N)c2Cl)C(=O)N1C` [Example 188, (S)-1-(3-amino-2-chloro-6-fluorobenzyl)-3,4-dimethyl-2-oxo-N-(2,4,6-trifluorobenzyl)-1,2,3,4-tetrahydroquinazoline-7-carboxamide], for which the EC50 (at hSTING(R232); in assay [1]; on hSTING(H232); at hSTING(HAQ); in the assay on IRF pathway (Homo sapiens); in the assay on NF-κB pathway (Homo sapiens)) was less than 1000 nM each time.

For the compound `C[C@H]1c2ccc(C(=O)NCc3c(F)cc(F)cc3F)cc2N(Cc2c(F)cncc2Br)C(=O)N1C` [Example 232, (S)-1-((3-bromo-5-fluoropyridin-4-yl)methyl)-3,4-dimethyl-2-oxo-N-(2,4,6-trifluorobenzyl)-1,2,3,4-tetrahydroquinazoline-7-carboxamide], the EC50 (at hSTING(R232); in assay [1]; on hSTING(H232); at hSTING(HAQ); with IRF pathway (Homo sapiens); in the assay with NF-κB pathway (Homo sapiens)) was less than 1000 nM in each case.

Regarding `COc1ccc(F)c(F)c1CN1C(=O)N(C)[C@@H](C)c2ccc(C(=O)NCc3c(F)cc(F)cc3F)cc21` [Example 241, (S)-1-(2,3-difluoro-6-methoxybenzyl)-3,4-dimethyl-2-oxo-N-(2,4,6-trifluorobenzyl)-1,2,3,4-tetrahydroquinazoline-7-carboxamide], the EC50 (on hSTING(R232); in assay [1]; on hSTING(H232); at hSTING(HAQ); in the assay with IRF pathway (Homo sapiens); with NF-κB pathway (Homo sapiens)) was less than 1000 nM in each case.

On to `C[C@H]1c2ccc(C(=O)NCc3c(F)cc(F)cc3F)cc2N(Cc2c(O)ccc(F)c2F)C(=O)N1C` [Example 242, (S)-1-(2,3-difluoro-6-hydroxybenzyl)-3,4-dimethyl-2-oxo-N-(2,4,6-trifluorobenzyl)-1,2,3,4-tetrahydroquinazoline-7-carboxamide], for which the EC50 (at hSTING(R232); in assay [1]; on hSTING(H232); at hSTING(HAQ); in the assay with IRF pathway (Homo sapiens); in the assay on NF-κB pathway (Homo sapiens)) was less than 1000 nM throughout.

In the case of `C[C@H]1c2ccc(C(=O)NCc3c(F)cc(F)cc3F)cc2N(Cc2c(F)ccc(OCCCO)c2F)C(=O)N1C` [Example 257, (S)-1-(2,6-difluoro-3-(3-hydroxypropoxy)benzyl)-3,4-dimethyl-2-oxo-N-(2,4,6-trifluorobenzyl)-1,2,3,4-tetrahydroquinazoline-7-carboxamide], the EC50 at hSTING(R232) was less than 1000 nM; in assay [1] it was 1000 to 10000 nM; on hSTING(H232), less than 1000 nM; on hSTING(HAQ), less than 1000 nM; in the assay on IRF pathway (Homo sapiens), less than 1000 nM; in the assay on NF-κB pathway (Homo sapiens) it was less than 1000 nM.
